The source made the active and inactive calls.
Tests used:
T-24 [1] = assay: Antimigratory activity against human T24 cells assessed as down regulation of CFL2 expression at 6 uM measured after 24 to 30 hrs by proteomic analysis; format: functional, cell-based; conditions: time 24-30 hrs
T-24 [2] = assay: Induction of morphological changes in human T24 cells assessed as cell shrinkage at 4 to 12 uM measured after 48 hrs by microscopy; format: functional, cell-based; conditions: dose 4-12 µM
T-24 [3] = assay: Induction of apoptosis in human T24 cells assessed as necrotic cells at 4 uM measured after 48 hrs by Annexin V-FITC/propidium iodide staining based flow cytometry (reference value: 0.57%); format: functional
T-24 [4] = assay: Antitumor activity against human T24 cells xenografted in BALB/c mouse assessed as reduction in Ki67 expression at 2 mg/kg, ip administered at 2 days interval by immunohistochemical analysis; format: functional, organism-based
T-24 [5] = assay: Up regulation of SLC7A11 gene expression in human T24 cells at 6 uM measured after 12 to 18 hrs by transcriptome analysis; format: functional, cell-based; conditions: time 12-18 hrs
T-24 [6] = assay: Induction of apoptosis in human T24 cells assessed as early apoptotic cells at 4 uM measured after 48 hrs by Annexin V-FITC/propidium iodide staining based flow cytometry (reference value: 1.2%); format: functional
T-24 [7] = assay: Induction of autophagy in human T24 cells assessed as effect on CISD2 gene expression at 6 uM measured after 12 to 18 hrs by transcriptome analysis; format: functional, cell-based; conditions: time 12-18 hrs
T-24 [8] = assay: Cytotoxicity against human T24 cells assessed as reduction in cell growth by CCK8 assay; format: functional, cell-based
T-24 [9] = assay: Effect on CDKN3 expression in human T24 cells at 6 uM measured after 24 to 30 hrs by proteomic analysis; format: functional, cell-based; conditions: time 24-30 hrs
T-24 [10] = assay: Antimigratory activity against human T24 cells at 4 to 12 uM measured after 24 hrs by scratch test; format: functional, cell-based; conditions: dose 4-12 µM
T-24 [11] = assay: Induction of apoptosis in human T24 cells assessed as late apoptotic cells at 4 uM measured after 48 hrs by Annexin V-FITC/propidium iodide staining based flow cytometry (reference value: 0.74%); format: functional
T-24 [12] = assay: Induction of autophagy in human T24 cells assessed as effect on FLCN gene expression at 6 uM measured after 12 to 18 hrs by transcriptome analysis; format: functional, cell-based; conditions: time 12-18 hrs
T-24 [13] = assay: Induction of apoptosis in human T24 cells assessed as up regulation of HMOX1 expression at 6 to 12 uM measured after 24 to 30 hrs by Western blot analysis; format: functional, cell-based; conditions: dose 6-12 µM, time 24-30 hrs
T-24 [14] = assay: Induction of apoptosis in human T24 cells assessed as up regulation of SQSTM1 gene expression at 6 uM measured after 12 to 18 hrs by transcriptome analysis; format: functional, cell-based; conditions: time 12-18 hrs
T-24 [15] = assay: Induction of apoptosis in human T24 cells assessed as effect on DHCR24 expression at 6 uM measured after 24 to 30 hrs by proteomic analysis; format: functional, cell-based; conditions: time 24-30 hrs
T-24 [16] = assay: Induction of autophagy in human T24 cells assessed as effect on LGALS8 gene expression at 6 uM measured after 12 to 18 hrs by transcriptome analysis; format: functional, cell-based; conditions: time 12-18 hrs
T-24 [17] = assay: Induction of apoptosis in human T24 cells assessed as late apoptotic cells at 8 uM measured after 48 hrs by Annexin V-FITC/propidium iodide staining based flow cytometry (reference value: 0.74%); format: functional
T-24 [18] = assay: Induction of apoptosis in human T24 cells assessed as effect on SQSTM1 expression at 6 uM measured after 24 to 30 hrs by proteomic analysis; format: functional, cell-based; conditions: time 24-30 hrs
T-24 [19] = assay: Induction of cell membrane disruption in human T24 cells at 4 to 8 uM measured after 48 hrs by transmission electron microscopy; format: cell-based; conditions: dose 4-8 µM
T-24 [20] = assay: Induction of autophagy in human T24 cells assessed as effect on PRKAA2 gene expression at 6 uM measured after 12 to 18 hrs by transcriptome analysis; format: functional, cell-based; conditions: time 12-18 hrs
T-24 [21] = assay: Antitumor activity against human T24 cells xenografted in BALB/c mouse assessed as reduction in tumor growth at 2 mg/kg, ip administered at 2 days interval; format: functional, organism-based
T-24 [22] = assay: Cell cycle arrest in human T24 cells assessed as increase in cell accumulation at S-phase at 2 to 8 uM measured after 24 hrs by propidium iodide staining based flow cytometry; format: functional; conditions: dose 2-8 µM
T-24 [23] = assay: Induction of apoptosis in human T24 cells assessed as late apoptotic cells at 6 uM measured after 48 hrs by Annexin V-FITC/propidium iodide staining based flow cytometry (reference value: 0.74%); format: functional
T-24 [24] = assay: Effect on MSH2 expression in human T24 cells at 6 uM measured after 24 to 30 hrs by proteomic analysis; format: functional, cell-based; conditions: time 24-30 hrs
T-24 [25] = assay: Induction of apoptosis in human T24 cells assessed as up regulation of SQSTM1 expression at 6 to 12 uM measured after 24 to 30 hrs by Western blot analysis; format: functional, cell-based; conditions: dose 6-12 µM, time 24-30 hrs
T-24 [26] = assay: Effect on RNF169 expression in human T24 cells at 6 uM measured after 24 to 30 hrs by proteomic analysis; format: functional, cell-based; conditions: time 24-30 hrs
T-24 [27] = assay: Induction of morphological changes in human T24 cells assessed as cytoplasmic condensation at 4 to 12 uM measured after 48 hrs by microscopy; format: functional, cell-based; conditions: dose 4-12 µM
T-24 [28] = assay: Up regulation of AIFM2 expression in human T24 cells at 6 uM measured after 24 to 30 hrs by proteomic analysis; format: functional, cell-based; conditions: time 24-30 hrs
T-24 [29] = assay: Induction of autophagy in human T24 cells assessed as effect on WDR41 gene expression at 6 uM measured after 12 to 18 hrs by transcriptome analysis; format: functional, cell-based; conditions: time 12-18 hrs
T-24 [30] = assay: Antimigratory activity against human T24 cells assessed as down regulation of ITGA3 expression at 6 uM measured after 24 to 30 hrs by proteomic analysis; format: functional, cell-based; conditions: time 24-30 hrs
T-24 [31] = assay: Up regulation of FTL gene expression in human T24 cells at 6 uM measured after 12 to 18 hrs by transcriptome analysis; format: functional, cell-based; conditions: time 12-18 hrs
T-24 [32] = assay: Antitumor activity against human T24 cells xenografted in BALB/c mouse assessed as reduction in mitotic count at 2 mg/kg, ip administered at 2 days interval by H and E staining based assay; format: functional, organism-based
T-24 [33] = assay: Effect on HLTF expression in human T24 cells at 6 uM measured after 24 to 30 hrs by proteomic analysis; format: functional, cell-based; conditions: time 24-30 hrs
[34] = Toxicity in human T24 cells xenografted BALB/c mouse assessed as effect on body weight at 2 mg/kg, ip administered at 2 days interval; format: organism-based, T-24; conditions: in vivo, 48 h
T-24 [35] = assay: Induction of apoptosis in human T24 cells assessed as viable cells at 8 uM measured after 48 hrs by Annexin V-FITC/propidium iodide staining based flow cytometry (reference value: 97.49%); format: functional; conditions: read-out: Activity
T-24 [36] = assay: Induction of morphological changes in human T24 cells assessed as reduction in cell adherence at 4 to 12 uM measured after 48 hrs by microscopy; format: functional, cell-based; conditions: dose 4-12 µM
T-24 [37] = assay: Induction of apoptosis in human T24 cells assessed as effect on TRIAP1 expression at 6 uM measured after 24 to 30 hrs by proteomic analysis; format: functional, cell-based; conditions: time 24-30 hrs
T-24 [38] = assay: Induction of apoptosis in human T24 cells assessed as up regulation of SQSTM1 expression at 6 to 12 uM measured after 24 hrs by immunofluorescence analysis; format: functional, cell-based; conditions: dose 6-12 µM
T-24 [39] = assay: Induction of apoptosis in human T24 cells assessed as up regulation of MAP1LC3B expression at 6 to 12 uM measured after 24 to 30 hrs by Western blot analysis; format: functional, cell-based; conditions: dose 6-12 µM, time 24-30 hrs

C=C1C(=O)[C@]23C[C@H]1C[C@@H](O)[C@H]2[C@@]12CO[C@@H](O)[C@@H]1C(C)(C)CC[C@@H]2OC3=O [NODOSIN]
2.38%: Activity (T-24 [6])
75.9%: viability at 8 µM (T-24 [35])
4.91 µM: IC50 (T-24 [8])
1.34%: Activity (T-24 [11])
active: Activity (T-24 [1]) | Activity (T-24 [2]) | Activity (T-24 [4]) | Activity (T-24 [5]) | Activity (T-24 [7]) | Activity (T-24 [8]; DDE = dose-dependent effect) Dde | Activity (T-24 [9]) | Activity (T-24 [10]) | Activity (T-24 [12]) | Activity (T-24 [13]) | Activity (T-24 [14]) | Activity (T-24 [15]) | Activity (T-24 [16]) | Activity (T-24 [18]) | Activity (T-24 [19]) | Activity (T-24 [20]) | Activity (T-24 [21]) | Activity (T-24 [22]) | Activity (T-24 [24]) | Activity (T-24 [25]) | Activity (T-24 [26]) | Activity (T-24 [27]) | Activity (T-24 [28]) | Activity (T-24 [29]) | Activity (T-24 [30]) | Activity (T-24 [31]) | Activity (T-24 [32]) | Activity (T-24 [33]) | Activity (T-24 [36]) | Activity (T-24 [37]) | Activity (T-24 [38]) | Activity (T-24 [39])
13.17%: Activity (T-24 [17])
Non-Toxic: Activity [34]
0.2%: Activity (T-24 [3])
10.04%: Activity (T-24 [23])

— ChEMBL document CHEMBL5120971, “Network Pharmacology Research and Dual-omic Analyses Reveal the Molecular Mechanism of Natural Product Nodosin Inhibiting Muscle-Invasive Bladder Cancer in Vitro and in Vivo” (J Nat Prod, 2022)
